Data published in patent US20240209019A1, “COMPOUNDS AND METHODS FOR TREATING HYPERKALEMIA” (ARDELYX, INC., priority 2019, published 2024).

Biological target: HSD2 (Homo sapiens (Human), UniProt P80365)
Assay: HSD2 activity: cortisol conversion in human descending colon organoid monolayer cultures (Example 112)
Details: human descending colon epithelial cultures on transwells; 30 minute pre-incubation, then 40 nM cortisol for four hours; cortisol HTRF assay
Description: Human descending colon epithelial stem cells were cultured as 3D organoids in accordance with Sato et al. Gastroenterology. […] Cultures were differentiated using SBM containing ENRA and 30 nM aldosterone on day 3, and cultures were used for assay on day 6 or 7. Compounds were diluted in DMSO and serial dilutions prepared by titrating in DMSO. Compounds were then diluted into DMEM/F12. Transwell plates containing descending colon cultures were washed twice with DMEM/F12 and compound was added to the apical compartment. Cells were incubated with test compound for 30 minutes at 37° C., 5% CO2 to equilibrate across the cell membrane. A second compound plate was prepared in which the serially diluted compounds in DMSO were diluted into DMEM/F12 containing 40 nM cortisol. Following the 30 minute pre-incubation step, the apical media was aspirated and compounds diluted in DMEM/F12 with 40 nM cortisol were added to the apical side of the transwell. The plate was then incubated for four hours at 37° C., 5% CO2. Cortisol levels were measured using a cortisol HTRF assay kit as described by the manufacturer (Cisbio). Concentration-response curves were then plotted and IC50 (and pIC50) values were determined using least squares non-linear regression.
Inhibition of HSD2 activity as measured by the inhibition of the conversion of cortisone to cortisol.

Sequence of HSD2 (P80365 whole entry): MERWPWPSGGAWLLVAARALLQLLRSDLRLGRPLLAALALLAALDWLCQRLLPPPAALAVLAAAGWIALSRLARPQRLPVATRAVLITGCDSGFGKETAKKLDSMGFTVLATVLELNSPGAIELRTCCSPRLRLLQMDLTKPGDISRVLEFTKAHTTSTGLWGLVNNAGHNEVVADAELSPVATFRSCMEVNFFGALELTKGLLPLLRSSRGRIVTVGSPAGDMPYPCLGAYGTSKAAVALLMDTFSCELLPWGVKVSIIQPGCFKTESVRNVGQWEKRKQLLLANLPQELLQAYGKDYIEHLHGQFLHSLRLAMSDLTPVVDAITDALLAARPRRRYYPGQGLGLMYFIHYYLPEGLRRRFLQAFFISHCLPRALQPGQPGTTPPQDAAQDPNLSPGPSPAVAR

Row | SMILES | pIC50
1 | COCC(=O)O[C@H]1CC[C@@]2(C)[C@@H](CC[C@]3(C)[C@@H]2C(=O)C=C2[C@@H]4C[C@@](C)(C(=O)O)CC[C@]4(C)CC[C@]23C)[C@]1(C)C(=O)OCc1oc(=O)oc1C [Compound 709-1, (2S,4aS,6aS,6bR,8aR,9S,10S,12aS,12bR,14bR)-10-[(2-methoxyacetyl)oxy]-2,4a,6a,6b,9,12a-hexamethyl-9-{[(5-methyl-2-oxo-2H-1,3-dioxol-4-yl)methoxy]carbonyl}-13-oxo-1,2,3,4,4a,5,6,6a,6b,7,8,8a,9,10,11,12,12a,12b,13,14b-icosahydropicene-2-carboxylic acid] | 7.2
2 | COCCOCCOCCSCc1oc(=O)oc1COC(=O)CO[C@H]1CC[C@]2(C)[C@H]3C(=O)C=C4[C@@H]5C[C@@](C)(C(=O)O)CC[C@]5(C)CC[C@@]4(C)[C@]3(C)CC[C@H]2C1(C)C [Compound 710-1, (2S,4aS,6aS,6bR,8aR,10S,12aS,12bR,14bR)-2,4a,6a,6b,9,9,12a-heptamethyl-13-oxo-10-(2-oxo-2-{[2-oxo-5-(2,5,8-trioxa-11-thiadodecan-12-yl)-2H-1,3-dioxol-4-yl]methoxy}ethoxy)-1,2,3,4,4a,5,6,6a,6b,7,8,8a,9,10,11,12,12a,12b,13,14b-icosahydropicene-2-carboxylic acid] | 6
3 | CC1(C)[C@@H](OCC(=O)OCc2oc(=O)oc2CO)CC[C@]2(C)[C@H]3C(=O)C=C4[C@@H]5C[C@@](C)(C(=O)O)CC[C@]5(C)CC[C@@]4(C)[C@]3(C)CC[C@@H]12 [Compound 711-1, (2S,4aS,6aS,6bR,8aR,10S,12aS,12bR,14bR)-10-(2-{[5-(hydroxymethyl)-2-oxo-2H-1,3-dioxol-4-yl]methoxy}-2-oxoethoxy)-2,4a,6a,6b,9,9,12a-heptamethyl-13-oxo-1,2,3,4,4a,5,6,6a,6b,7,8,8a,9,10,11,12,12a,12b,13,14b-icosahydropicene-2-carboxylic acid] | 5.8
4 | Cc1oc(=O)oc1COC(=O)CO[C@H]1CC[C@]2(C)[C@H]3C(=O)C=C4[C@@H]5C[C@@](C)(C(=O)O)CC[C@]5(C)CC[C@@]4(C)[C@]3(C)CC[C@H]2C1(C)C [Compound 712-1, (2S,4aS,6aS,6bR,8aR,10S,12aS,12bR,14bR)-2,4a,6a,6b,9,9,12a-heptamethyl-10-{2-[(5-methyl-2-oxo-2H-1,3-dioxol-4-yl)methoxy]-2-oxoethoxy}-13-oxo-1,2,3,4,4a,5,6,6a,6b,7,8,8a,9,10,11,12,12a,12b,13,14b-icosahydropicene-2-carboxylic acid] | 5
5 | CCOC(=O)c1cnn([C@H]2CC[C@@]3(C)[C@@H](CC[C@]4(C)[C@@H]3C(=O)C=C3[C@@H]5C[C@@](C)(C(=O)O)CC[C@]5(C)CC[C@]34C)[C@]2(C)C(=O)OCc2oc(=O)oc2C)c1OC [Compound 713-1, (2S,4aS,6aS,6bR,8aR,9S,10S,12aS,12bR,14bR)-10-[4-(ethoxycarbonyl)-5-methoxy-1H-pyrazol-1-yl]-2,4a,6a,6b,9,12a-hexamethyl-9-{[(5-methyl-2-oxo-2H-1,3-dioxol-4-yl)methoxy]carbonyl}-13-oxo-1,2,3,4,4a,5,6,6a,6b,7,8,8a,9,10,11,12,12a,12b,13,14b-icosahydropicene-2-carboxylic acid] | 6.9
